Measured values published in patent US10441681B2, “Materials and methods for nerve grafting” (University of Florida Research Foundation, Inc., priority 2001, dated 2019).

Legend:
rat sciatic nerve = assay: Axonal regeneration after sciatic nerve transection (neurotmesis) and neurorrhaphic repair; assay type: in vivo
Procedure: (§1) All surgical procedures were performed according to Institutional Animal Care and Use Committee (IACUC) approved protocols. Young adult SPRAGUE DAWLEY rats (HARLAN Indianapolis, Ind.) were deeply anesthetized with xylazine (15 mg/kg, i.m.) followed by ketamine-HCl (110 mg/kg, i.p.). Six animals received bilateral nerve crush injuries. Sciatic nerves were exposed and then crushed with firm pressure for thirty seconds with a DUMONT #5 forceps at a site 4 mm distal to the tendon of the internal obdurator. The crush site was marked with an epineurial suture. In a separate set of experiments, eight rats received bilateral sciatic nerve transection injuries using serrated scissors. The proximal and distal stumps were coated by epineurial neurorrhaphy using 9-0 ETHILON sutures. Fibrin glue (fibrinogen and thrombin) was then applied to stabilize the union. In both injury models, the right sciatic nerves were injected 2-mm distal to the injury with chondroitinase ABC (1 U in 2 μl) (high-purity, protease-free; SIGMA CHEMICAL CO., St. Louis, […].). Left sciatic nerves (with the same injury as the right side) were injected with vehicle alone (0.1% bovine serum albumin in PBS). Muscle incisions were sutured and the skin closed with metal clips. After recovery from the anesthetic, animals were returned to standard housing. Two days (for crush injury) and four days (for transection injury) after surgery, nerves were removed under anesthesia and fixed as described below. One of the eight animals receiving nerve transection and repair was excluded because loss of continuity in one nerve occurred during convalescence.
The hypothesis that chondroitinase treatment improves axonal growth through the site of nerve coaptation was tested. Bilateral neurotmesis was achieved by a scissor cut of the sciatic nerves which were then repaired by epineurial suture and fibrin glue. One nerve was injected with chondroitinase ABC and the contralateral nerve received vehicle alone. Because of the latency of regeneration after nerve transection, axonal growth across the coaptation was examined four days after injury. In control nerves, the ingress of axons occurred mainly in patches and was limited to discrete subsections of the distal nerve; otherwise only a few axons were found scattered throughout the remaining nerve cross-section, as shown in FIG. 14A. The number of axons extending farther into the distal (after 4 days) rapidly diminished and approached zero within 3 mm from the coaptation. In contrast, axon ingress into chondroitinase-treated nerves was more robust and widespread throughout the entire nerve cross-section. In 7/7 animals, the number of axons that entered the distal nerve was greater in the chondroitinase-treated nerve than in the control nerve. […]

CSPG [1] = assay: CSPG-neoepitope immunolabeling of injured sciatic nerve after in vivo chondroitinase injection; set-up: species or system rat; conditions: single injection 1 U in 2 μl, 2 mm distal to injury; 4 days (transection) or 2 days (crush)
Procedure: as §1, with “After recovery from the anesthetic, animals were returned to standard housing. Two days (for crush injury) and four days (for transection injury) after surgery, nerves were removed under anesthesia and fixed as described below. One of the eight animals receiving nerve transection and repair was excluded because loss of continuity in one nerve occurred during convalescence.” left out
(§2) Axonal regeneration was assessed by GAP-43 immunofluorescence and digital image analysis. […]

CSPG [2] = assay: CSPG neoepitope (Ab1918) immunolabeling of acellular rat sciatic nerve segments treated en bloc; conditions: acellular rat sciatic nerve segments bathed en bloc in chondroitinase ABC solution for 16 hours
Description: Adult (180-200 g) female SPRAGUE DAWLEY rats (HARLAN, Indianapolis, Ind.) were used as nerve donors and recipient hosts. Donor rats were anesthetized with halothane and decapitated. Sciatic nerves were exposed through a gluteal muscle-splitting incision and isolated free of underlying fascia. A 15-mm nerve segment was excised rostral to the bifurcation into common peroneal and tibial nerves. The segments were rinsed with cold sterile Ringer's solution, stabilized by pinning the ends to a thin plastic support, and transferred to a cryogenic vial. The vials were submerged in liquid nitrogen for 2 minutes and then transferred to a 37° C. water bath for 2 minutes. This freeze/thaw cycle was repeated, yielding acellular nerve grafts that were then stored in liquid nitrogen. On the day before grafting, the nerve grafts were warmed to room temperature and incubated in 100 μl phosphate buffered saline pH 7.4 (PBS) containing 2 units/ml chondroitinase ABC (SIGMA, St. Louis, Mo.) or in PBS (vehicle) only for 16 hours at 37° C. The grafts were rinsed twice with Ringer's and kept on ice prior to use. The chondroitinase ABC preparation was highly purified and stated by the manufacturer to be essentially free of protease activity.
as §2

With chondroitinase ABC the “propensity of axons to regrow within basal laminae of the distal nerve” value (rat sciatic nerve; GAP-43/laminin double-immunolabeling) was “unaltered”, the “animals in which the number of axons entering the distal nerve was greater than in the control nerve” value (rat sciatic nerve; four days after injury) was 7/7 and the “score of axons immediately distal to the coaptation vs control nerves” value (rat sciatic nerve; four days after transection and repair, 1 U in 2 μl injected, n=7) was “two-fold greater”. The “animals with increases greater than 3.5-fold” value (rat sciatic nerve; score of axons immediately distal to the coaptation, four days) was 3/7, the “CSPG degradation in extracellular matrix around the injection site” value (CSPG [1]) was “substantially, if not completely, degraded CSPG” and the “CSPG degradation (Ab1918 neoepitope immunostaining)” value (CSPG [2]) was “thoroughly degraded CSPG side-chains”.
